Laboratory results reported in patent publication US12351828B2, “Method for constructing hepatic progenitor cell-like cell bank, cell lines prepared therefrom and application thereof” (SHANGHAI CELLIVER BIOTECHNOLOGY CO., LTD., priority 2019, dated 2025).

Tests used:
Assay in all cases: Erlotinib-specific hepatotoxicity, in vitro three-dimensional hepatocyte model, PrestoBlue cell viability
Format in all cases: cell-based, human
[1] = test system: first hepatocyte model line; details: co-cultured 48 hours, 0.24-250 μMol/L, FIG. 6a
Text: (§1) The in vitro three-dimensional hepatocyte model is constructed by using the hepatic progenitor cell-like cell bank. The method for constructing the in vitro three-dimensional hepatocyte model is stated in the “Expansion and Differentiation of Human Hepatocyte-derived Liver Progenitor-like Cells and Their Use for the Study of Hepatotropic Pathogens” published in Volume 29, Issue 1, 2018, Cell Research, and is not repeated here. In the process of constructing the in vitro three-dimensional hepatocyte model, a first hepatocyte model line, a second hepatocyte model line, a third hepatocyte model line, a fourth hepatocyte model line, a fifth hepatocyte model line and a sixth hepatocyte model line are obtained by the first immortal hepatic progenitor cell-like cell line, the second immortal hepatic progenitor cell-like cell line, the third immortal hepatic progenitor cell-like cell line, the fourth immortal hepatic progenitor cell-like cell line, the fifth immortal hepatic progenitor cell-like cell line and the sixth immortal hepatic progenitor cell-like cell line, respectively.
(§2) In the embodiment of the present invention, the specific toxic drug Erlotinib is used to characterize the specific hepatotoxicity of the in vitro three-dimensional hepatocyte model.
(§3) Preparing a Erlotinib solutions with concentrations of 250 μMol/L, 62.5 μMol/L, 15.625 μMol/L, 3.9 μMol/L, 0.97 μMol/L, 0.24 μMol/L by dimethyl sulfoxide (DMSO), and using DMSO as a blank reference.
(§4) Each hepatocyte model line in the in vitro three-dimensional hepatocyte model is co-cultured with different concentrations of Erlotinib aqueous solution for 48 hours.
(§5) After the co-culture is completed, the PrestoBlue™ cell viability testing reagent produced by Life Technologies is used to characterize the Erlotinib-specific hepatotoxicity in each culture obtained after the co-culture, respectively. The specific methods for the co-culture and the characterization of the Erlotinib-specific hepatotoxicity are common methods known by those skilled in the art and will not be repeated here.

[2] = test system: fourth hepatocyte model line; details: co-cultured 48 hours, 0.24-250 μMol/L, FIG. 6d
Text: as §1, §2, §3, §4, §5

[3] = test system: third hepatocyte model line; details: co-cultured 48 hours, 0.24-250 μMol/L, FIG. 6c
Text: as §1, §2, §3, §4, §5

[4] = test system: fifth hepatocyte model line; details: co-cultured 48 hours, 0.24-250 μMol/L, FIG. 6e
Text: as §1, §2, §3, §4, §5

[5] = test system: sixth hepatocyte model line; details: co-cultured 48 hours, 0.24-250 μMol/L, FIG. 6f
Text: as §1, §2, §3, §4, §5

[6] = test system: second hepatocyte model line; details: co-cultured 48 hours, 0.24-250 μMol/L, FIG. 6b
Text: as §1, §2, §3, §4, §5

Measured: cell viability with the increase in the concentration of Erlotinib solution

C#Cc1cccc(Nc2ncnc3cc(OCCOC)c(OCCOC)cc23)c1 [Erlotinib]
basically does not significant changed: [1] | [4] | [5] | [6]
significant downward trend: [2] | [3]
